Two compounds from patent publication US10919878B2, “MCT4 inhibitors and uses thereof” (CHARLES R. DREW UNIVERSITY OF MEDICINE AND SCIENCE, priority 2018, dated 2021) can be followed below.

The subject of data set [1] is MDA-MB-231 cells. The data set can be described thus: Viability/cytotoxicity assay (growth inhibition). To be noted: Homo sapiens, read-out: IC50, inhibition of cell proliferation. Type of data set: cell-based. As to the method: Human cell lines MDA-MB-231 cells were obtained from ATCC (Rockville, Md.). These cells were authenticated by Laragen, Inc. (Culver City, Calif.), by short tandem repeat (STR) profiling, monitoring cell morphology and biological behavior, and tested to exclude mycoplasma contamination prior to use.
A viability/cytotoxicity assay was performed by culturing cells in 96-well plates. The following day the cells were treated with ½ serial dilutions of each compound or the solvent (DMSO) alone as a control. The amount of solvent was the same in all the conditions and each condition was tested in duplicate or triplicate. After 5 days incubation, the effect of the compounds on cell proliferation were determined by either MTT (3-(4,5-dimethylthiazol-2-yl)-2,5-diphenyltetrazolium bromide, Sigma-Aldrich, St. Louis, Mo.) or bioluminescence assay (Cell Titer Glo, Promega, Madison, Wis.). After incubation of the cells with MTT (1 mg/ml), the developed color was dissolved in DMSO and read by a plate reader. The bioluminescence assays were performed according to the manufacturer's recommendation. Growth inhibition rates were determined by comparing the read out for each compound dilution versus the control and from the growth inhibition curves from which the IC50 values were calculated. Each assay was performed at least twice.

Data set [2] deals with MDA-MB-231 tumors. The data set can be described thus: MDA-MB-231 TNBC xenograft tumor model in nude mice. Type of data set: in vivo. To be noted: 20 mg/kg intraperitoneally, up to 4 weeks; for tumor growth (size and weight): daily 5 days then 2 days rest. As to the method: Values represent mean±SD, n=6-8 mice/group.
Values represent mean±SD, n=8 mice/group.
The anti-tumor effects of the MCT4 inhibitors CB-1, CB-2 and/or CB-3 were evaluated in nude mice implanted with human triple negative breast cancer (TNBC) cells (MDA-MB-231). For TNBC xenograft tumor models, MDA-MB-231 (5×10^6) cancer cells were injected subcutaneously into the flanks of female athymic nude mice (nu/nu, 4 weeks old). Two weeks after the injection of cancer cells, xenograft tumors were found in the injection site. Tumor dimensions were measured, and volume was calculated by length (L), width (W), and height (H) using the formula (volume=π/6×L×W×H). After the tumors reached a volume of 50 mm^3, the mice were injected intraperitoneally with 20 mg/kg CB-1, CB-2, CB-3 or with the vehicle solution (DMSO; i.e., Control) for up to 4 weeks. The MCT4 inhibitors were injected daily for 5 days and then mice were rested for 2 days.

For data set [3], the target named is T1, MCT4 (Homo sapiens, UniProt O15427).
T1 construct: host or cells: MDA-MB-231
T1 sequence (O15427 1-465): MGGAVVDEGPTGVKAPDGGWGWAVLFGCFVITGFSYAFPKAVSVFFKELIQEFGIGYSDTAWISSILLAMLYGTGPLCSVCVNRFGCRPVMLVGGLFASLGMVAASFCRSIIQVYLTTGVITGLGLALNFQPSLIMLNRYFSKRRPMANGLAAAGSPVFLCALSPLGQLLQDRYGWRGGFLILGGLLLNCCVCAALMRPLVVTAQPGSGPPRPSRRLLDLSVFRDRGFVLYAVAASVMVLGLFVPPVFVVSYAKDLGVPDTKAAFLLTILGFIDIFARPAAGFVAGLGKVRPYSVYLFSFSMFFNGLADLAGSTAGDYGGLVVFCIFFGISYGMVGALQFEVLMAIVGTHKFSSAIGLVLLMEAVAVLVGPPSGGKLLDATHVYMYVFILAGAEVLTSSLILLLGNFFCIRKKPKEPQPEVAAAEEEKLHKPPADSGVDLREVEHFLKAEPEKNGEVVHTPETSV
The experiment in a line: Lactate secretion assay (LACTATE-GLO Assay). The data set is classed as cell-based. To be noted: MDA-MB-231 cells, compounds 2.5 μM, 48 h. As to the method: Briefly, MDA-MB-231 cells were incubated with the various compounds (2.5 μM) for 48 h followed by a lactate secretion assay. […] Small compound names are shown on the x-axis. Diclofenac was used as a positive control.
MDA-MB-231 cells were incubated with various candidate compounds (2.5 μM) for 48 hours followed by lactate secretion assay with a LACTATE-GLO™ Assay kit (Promega Corporation, Madison, Wis.) according to the manufacturer's protocol.

pIC50: −log10 of the molar value.

`O=C(Nc1cc(Cl)ccc1Oc1ccc2ccccc2c1Br)c1cc(Cl)cc(I)c1O` [CB-1, N-{2-[(1-bromo-2-naphthyl)oxy]-5-chlorophenyl}-5-chloro-2-hydroxy-3-iodobenzamide]: the pIC50 in data set [1] is 4.45. For the same compound, in data set [2], the “tumor growth (size and weight)” value is reported as “significantly inhibited tumor growth”; the “body weight of the mice” value is listed as “began to lose weight”.
In the case of `O=C(Nc1ccc(Nc2cc(-n3ccnc3)ncn2)cc1)Nc1cc(F)cc(F)c1` [CB-3, N-(3,5-difluorophenyl)-N′-(4-{[6-(1H-imidazol-1-yl)-4-pyrimidinyl]amino}phenyl)urea], in data set [3], the lactate secretion inhibition result is recorded as “most effective”. Moreover, in data set [2], the “tumor growth (size and weight)” value is “strikingly reduced the size and weight”; the “body weight of the mice” value is given as “without affecting body weight”; the “signs of systemic toxicity” value is on record as “no detectable signs of systemic toxicity”.
